Literature values as cited in PMC9516332 (Frontiers in Oncology, 2022).

How the values were obtained:
[1] = target: T1, panel of 255 wild-type kinases (Homo sapiens, UniProt P36888); conditions: kinase FLT3; 1 µmol/L single concentration; ref DOI: 10.1158/1535-7163.MCT-18-0877; cited from earlier work
T1 sequence (P36888 27-993): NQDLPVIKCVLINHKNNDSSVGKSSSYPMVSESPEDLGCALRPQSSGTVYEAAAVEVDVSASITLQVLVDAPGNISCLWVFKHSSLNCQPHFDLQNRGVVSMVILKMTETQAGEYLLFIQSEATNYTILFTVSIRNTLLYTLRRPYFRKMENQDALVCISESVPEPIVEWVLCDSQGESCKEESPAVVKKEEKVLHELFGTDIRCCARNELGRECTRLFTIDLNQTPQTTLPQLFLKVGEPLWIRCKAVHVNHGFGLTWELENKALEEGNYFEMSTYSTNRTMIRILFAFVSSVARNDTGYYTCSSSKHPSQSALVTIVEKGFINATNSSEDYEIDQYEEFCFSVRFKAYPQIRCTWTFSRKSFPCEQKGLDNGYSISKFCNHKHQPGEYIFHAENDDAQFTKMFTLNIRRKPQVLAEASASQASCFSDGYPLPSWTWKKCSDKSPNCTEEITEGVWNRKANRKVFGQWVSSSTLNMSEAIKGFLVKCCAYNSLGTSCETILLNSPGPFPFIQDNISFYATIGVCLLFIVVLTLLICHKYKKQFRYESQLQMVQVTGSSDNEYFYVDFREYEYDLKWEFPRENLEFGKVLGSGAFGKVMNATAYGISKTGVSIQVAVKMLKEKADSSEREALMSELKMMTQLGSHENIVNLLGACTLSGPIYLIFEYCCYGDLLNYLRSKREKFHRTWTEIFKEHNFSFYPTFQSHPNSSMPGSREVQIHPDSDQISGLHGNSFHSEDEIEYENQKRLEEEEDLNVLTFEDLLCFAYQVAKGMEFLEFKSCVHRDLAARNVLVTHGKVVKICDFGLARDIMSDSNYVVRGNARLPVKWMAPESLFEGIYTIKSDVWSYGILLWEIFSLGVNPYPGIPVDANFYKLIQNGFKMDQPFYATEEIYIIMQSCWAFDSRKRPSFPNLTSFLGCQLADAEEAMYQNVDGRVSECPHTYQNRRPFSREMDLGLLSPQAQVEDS

[2] = target: panel of 255 wild-type kinases (Homo sapiens, UniProt P24941); conditions: 1 µmol/L single concentration, ref DOI: 10.1158/1535-7163.MCT-18-0877, cited from earlier work; for %-inhibition CDK2/CycA2: CDK2/CycA2 kinase assay; for %-inhibition CDK2/CycE1: CDK2/CycE1 kinase assay
[3] = target: panel of 255 wild-type kinases (Homo sapiens, UniProt O60674); conditions: kinase JAK2; 1 µmol/L single concentration; ref DOI: 10.1158/1535-7163.MCT-18-0877; cited from earlier work
[4] = target: panel of 255 wild-type kinases (Homo sapiens, UniProt P53350); conditions: kinase PLK1; 1 µmol/L single concentration; ref DOI: 10.1158/1535-7163.MCT-18-0877; cited from earlier work
[5] = target: panel of 255 wild-type kinases (Homo sapiens, UniProt Q9Y463); conditions: kinase DYRK1B; 1 µmol/L single concentration; ref DOI: 10.1158/1535-7163.MCT-18-0877; cited from earlier work
[6] = target: T2, panel of 255 wild-type kinases (Homo sapiens, UniProt O94806); conditions: kinase PKD3; 1 µmol/L single concentration; ref DOI: 10.1158/1535-7163.MCT-18-0877; cited from earlier work
T2 sequence (O94806 1-890): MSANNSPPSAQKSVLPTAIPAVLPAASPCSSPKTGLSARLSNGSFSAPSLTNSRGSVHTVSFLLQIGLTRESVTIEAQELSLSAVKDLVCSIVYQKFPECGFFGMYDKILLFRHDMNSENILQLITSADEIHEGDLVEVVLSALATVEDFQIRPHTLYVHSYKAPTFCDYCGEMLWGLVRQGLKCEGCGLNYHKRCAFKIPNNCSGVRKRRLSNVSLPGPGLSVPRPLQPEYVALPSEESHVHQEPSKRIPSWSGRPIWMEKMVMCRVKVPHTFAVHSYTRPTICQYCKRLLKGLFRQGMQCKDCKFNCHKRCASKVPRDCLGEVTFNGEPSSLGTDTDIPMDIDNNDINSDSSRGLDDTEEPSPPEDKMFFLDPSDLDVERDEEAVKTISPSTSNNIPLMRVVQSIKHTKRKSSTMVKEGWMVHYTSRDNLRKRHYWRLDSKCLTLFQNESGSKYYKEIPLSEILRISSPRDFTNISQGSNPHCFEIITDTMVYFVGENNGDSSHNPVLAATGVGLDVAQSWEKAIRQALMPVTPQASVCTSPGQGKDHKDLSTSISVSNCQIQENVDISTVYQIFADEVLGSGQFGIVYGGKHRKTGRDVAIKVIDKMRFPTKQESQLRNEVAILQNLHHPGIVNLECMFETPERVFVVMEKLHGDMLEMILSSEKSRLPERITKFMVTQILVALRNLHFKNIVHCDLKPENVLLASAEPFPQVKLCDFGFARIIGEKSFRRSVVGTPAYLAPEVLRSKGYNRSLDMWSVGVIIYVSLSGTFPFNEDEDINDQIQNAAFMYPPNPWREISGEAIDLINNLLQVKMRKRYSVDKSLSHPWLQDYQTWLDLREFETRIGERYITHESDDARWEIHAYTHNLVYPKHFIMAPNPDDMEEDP

[7] = target: panel of 255 wild-type kinases (Homo sapiens, UniProt O00311); conditions: CDC7/ASK kinase assay; 1 µmol/L single concentration; ref DOI: 10.1158/1535-7163.MCT-18-0877; cited from earlier work
[8] = target: panel of 255 wild-type kinases (Homo sapiens, UniProt Q9H422); conditions: kinase HIPK3; 1 µmol/L single concentration; ref DOI: 10.1158/1535-7163.MCT-18-0877; cited from earlier work
[9] = target: panel of 255 wild-type kinases (Homo sapiens, UniProt Q9Y6E0); conditions: MST3; 1 µmol/L single concentration; ref DOI: 10.1158/1535-7163.MCT-18-0877; cited from earlier work
[10] = target: panel of 255 wild-type kinases (Homo sapiens, UniProt Q13177); conditions: PAK2; 1 µmol/L single concentration; ref DOI: 10.1158/1535-7163.MCT-18-0877; cited from earlier work

SMILES | %-inhibition at 1 µmol/L, FLT3 [1] | %-inhibition CDK2/CycA2 [2] | %-inhibition CDK2/CycE1 [2] | %-inhibition at 1 µmol/L, JAK2 [3] | %-inhibition at 1 µmol/L, PLK1 [4] | %-inhibition at 1 µmol/L, DYRK1B [5] | %-inhibition at 1 µmol/L, PKD3 [6] | %-inhibition CDC7/ASK [7] | %-inhibition at 1 µmol/L, HIPK3 [8] | %-inhibition, MST3 [9] | %-inhibition, PAK2 [10]
CC#CC(=O)N1CCC[C@H]1c1nc(-c2ccc(C(=O)Nc3ccccn3)cc2)c2c(N)nccn12 [acalabrutinib] | 3.27% | -5% | -5% | -9% | -2.57% | -19% | -2% | -1.64% | -12% | -2.52% | -5%
C=CC(=O)Nc1cc(Nc2nccc(-c3cn(C)c4ccccc34)n2)c(OC)cc1N(C)CCN(C)C [osimertinib] | 84% | -6% | 24% | 4% | -0.476% | 5% | 28% | 1.64% | 20% | 5.71% | -14%
C=CC(=O)N1CCC[C@@H](n2nc(-c3ccc(Oc4ccccc4)cc3)c3c(N)ncnc32)C1 [ibrutinib] | 63% | -12% | -8% | 0.407% | -2.28% | 2% | 5.48% | -1% | 1.67% | 8% | -6%
